This note sets out measurements from ChEMBL document CHEMBL1201862, “PubChem BioAssay data set” (2004).

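Results reflect a 48-hour exposure of cells in 96-well plates to compound at five concentrations. GI50 = concentration required for 50% inhibition of growth.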 Active and inactive are the calls of the source. Rule as the data show it: active = GI50 up to about 1.1 µM and inactive = higher. A value given as a limit tells only on which side of the number the result lay.

Some test systems named below: NCI-H23; NCI-H522; MDA-MB-231; LOX IMVI; SK-MEL-5; M14; OVCAR-5; IGROV-1; MDA-N; UACC-62; SN12C; Malme-3M; HCT-15; UACC-257; SW-620; KM12; 786-0; MDA-MB-435; BT-549; EKVX.
What all share (test): NCI-60 cell line screen, 48 h

Take `c1ccc(NCCSc2nc3ccccc3s2)cc1`: the GI50 with NCI-H23 is 29 µM (inactive); with NCI-H522 it was 37.2 µM (inactive); with MDA-MB-231, 29.4 µM (inactive); in the experiment with LOX IMVI it was 45.5 µM (inactive); in the experiment with SK-MEL-5, 21.5 µM (inactive); with M14, 44.7 µM (inactive). Further, the GI50 is 54 µM (inactive) in the experiment with OVCAR-5; > 100 µM (inactive) with IGROV-1; 36.9 µM (inactive) in the experiment on MDA-N; 66.5 µM (inactive) in the experiment with UACC-62; 46.1 µM (inactive) with SN12C; 44.9 µM (inactive) in the experiment with Malme-3M. In addition, the GI50 with HCT-15 is 18 µM; in the experiment with UACC-257 it was 22.1 µM (inactive); in the experiment on SW-620, 58.3 µM (inactive); in the experiment on KM12, 30.9 µM (inactive); in the experiment on 786-0 it was 37.6 µM (inactive); with MDA-MB-435, 43.3 µM (inactive). Besides, the GI50 with BT-549 is 34.8 µM (inactive); with EKVX, 29.5 µM (inactive).

Consider `COc1cc(/C=C/c2nc(NC(=S)Nc3ccccc3)nnc2C)cc(OC)c1OC`, for which the GI50 with NCI-H23 is 17.3 µM (inactive); in the experiment on NCI-H522, 11.1 µM (inactive); in the experiment with MDA-MB-231, 33 µM (inactive); in the experiment on LOX IMVI, 37.2 µM (inactive); in the experiment on SK-MEL-5, 14.7 µM (inactive); in the experiment with M14 it was 21.4 µM (inactive). In addition, the GI50 with OVCAR-5 is 31.6 µM (inactive); in the experiment on IGROV-1, 27.2 µM (inactive); in the experiment with MDA-N, 48.2 µM (inactive); in the experiment on UACC-62 it was 14.1 µM (inactive); with SN12C, 39.1 µM (inactive); with Malme-3M, 23.9 µM (inactive). For the same compound, the GI50 with HCT-15 was 11.2 µM; in the experiment on UACC-257, 30.3 µM (inactive); in the experiment on SW-620, 38.1 µM (inactive); in the experiment with KM12, 14.5 µM (inactive); in the experiment on 786-0, 28.3 µM (inactive); in the experiment on MDA-MB-435, 38.4 µM (inactive). Besides, the GI50 in the experiment on BT-549 was 25.2 µM (inactive); with EKVX it was 22.4 µM (inactive).

On to `CN(C(=O)Cc1cccc(N=C=S)c1)[C@H]1CCCC[C@@H]1N1CCCC1`, for which the GI50 in the experiment with NCI-H23 was 14.2 µM (inactive); in the experiment on NCI-H522, 12.9 µM (inactive); with MDA-MB-231, 16.9 µM (inactive); in the experiment with LOX IMVI, 14.5 µM (inactive); with SK-MEL-5 it was 5.73 µM (inactive); in the experiment on M14 it was 17.8 µM (inactive). Moreover, the GI50 in the experiment with OVCAR-5 was 19.2 µM (inactive); in the experiment with IGROV-1, 13.9 µM (inactive); with MDA-N, 14.1 µM (inactive); with UACC-62, 15.7 µM (inactive); in the experiment on SN12C, 15.2 µM (inactive); in the experiment with Malme-3M it was 22.4 µM (inactive). In addition, the GI50 in the experiment with HCT-15 is 14.5 µM; in the experiment on UACC-257, 13.5 µM (inactive); with SW-620, 11.6 µM (inactive); in the experiment on KM12, 17.9 µM (inactive); in the experiment on 786-0, 15.1 µM (inactive); in the experiment with MDA-MB-435, 13.9 µM (inactive). The GI50 is 11 µM (inactive) in the experiment on BT-549 and 18.1 µM (inactive) in the experiment on EKVX.

For `NC1CC(=O)c2c(I)sc(I)c21` (stereo not given), the GI50 was 17.1 µM (inactive) in the experiment on NCI-H23; 7.69 µM (inactive) in the experiment with NCI-H522; 20 µM (inactive) in the experiment on MDA-MB-231; 13.3 µM (inactive) with LOX IMVI; 27.6 µM (inactive) with SK-MEL-5; 27.2 µM (inactive) in the experiment with M14. In addition, the GI50 in the experiment on OVCAR-5 was 24.1 µM (inactive); with IGROV-1, 15.2 µM (inactive); in the experiment on MDA-N, 19.7 µM (inactive); in the experiment on UACC-62, 16.7 µM (inactive); with SN12C, 27.3 µM (inactive); in the experiment with Malme-3M, 13.7 µM (inactive). For the same compound, the GI50 in the experiment with HCT-15 was 9.31 µM; in the experiment with UACC-257, 19.8 µM (inactive); with SW-620 it was 11.6 µM (inactive); in the experiment with KM12, 15.4 µM (inactive); in the experiment with 786-0 it was 11.2 µM (inactive); in the experiment with MDA-MB-435, 16.4 µM (inactive). Moreover, the GI50 in the experiment on BT-549 was 18.4 µM (inactive); in the experiment on EKVX, 19.9 µM (inactive).

Take `Nc1nc(=O)n(C2CC(O)C(CO)O2)c2nc(-c3ccc(-c4ccccc4)cc3)cnc12` (stereo not given): the GI50 in the experiment on NCI-H23 was 99.3 µM (inactive); in the experiment with NCI-H522 it was 22.1 µM (inactive); with MDA-MB-231, 21.9 µM (inactive); in the experiment with LOX IMVI it was 38.8 µM (inactive); in the experiment with SK-MEL-5, 15.9 µM (inactive); in the experiment with M14, > 100 µM (inactive). The GI50 is > 100 µM (inactive) with OVCAR-5; > 100 µM (inactive) in the experiment with IGROV-1; 58.2 µM (inactive) in the experiment on MDA-N; 25.3 µM (inactive) in the experiment on UACC-62; 62.7 µM (inactive) in the experiment with SN12C; 41.7 µM (inactive) in the experiment with Malme-3M. The GI50 is over 100 µM with HCT-15; > 100 µM (inactive) in the experiment on UACC-257; > 100 µM (inactive) with SW-620; > 10 µM (inactive) in the experiment on KM12; 40.1 µM (inactive) in the experiment on 786-0; 97.7 µM (inactive) in the experiment on MDA-MB-435. Besides, the GI50 with BT-549 is > 100 µM (inactive); in the experiment on EKVX, 96.4 µM (inactive).

On to `CCN(C(=S)N[C@H](C(=O)N[C@@H](C)C(=O)OC)C(C)C)c1ccccc1`, for which the GI50 with NCI-H23 is > 100 µM (inactive); in the experiment on NCI-H522 it was 16.6 µM (inactive); with MDA-MB-231, > 100 µM (inactive); with LOX IMVI, 52.6 µM (inactive); in the experiment on SK-MEL-5, 71.4 µM (inactive); in the experiment on M14, 53.2 µM (inactive). Further, the GI50 in the experiment on OVCAR-5 was > 100 µM (inactive); with IGROV-1, 25.8 µM (inactive); in the experiment on MDA-N, 91.2 µM (inactive); in the experiment with UACC-62 it was 76.7 µM (inactive); with SN12C, 66.8 µM (inactive); in the experiment on Malme-3M it was 21.8 µM (inactive). The GI50 in the experiment on HCT-15 is 63.1 µM; in the experiment on UACC-257 it was 44.7 µM (inactive); in the experiment on SW-620 it was 59.7 µM (inactive); in the experiment on KM12 it was > 100 µM (inactive); in the experiment with 786-0, 59.7 µM (inactive); with MDA-MB-435, 64 µM (inactive). The GI50 in the experiment on BT-549 and in the experiment with EKVX was > 100 µM (inactive) in each case.

Take `Clc1ccc(C2C3COc4ccccc4C3=NN2c2ccccc2)cc1` (stereo not given): the GI50 with NCI-H23 is > 91.6 µM (inactive); with NCI-H522, 17.8 µM (inactive); with MDA-MB-231 it was 59.3 µM (inactive); in the experiment with LOX IMVI, 7.19 µM (inactive); with SK-MEL-5 it was > 82.8 µM (inactive); in the experiment with M14 it was 96.8 µM (inactive). Besides, the GI50 in the experiment on OVCAR-5 was > 100 µM (inactive); in the experiment on IGROV-1, > 69 µM (inactive); in the experiment with MDA-N, 22.8 µM (inactive); in the experiment with UACC-62, 64.7 µM (inactive); in the experiment on SN12C, 43.6 µM (inactive); in the experiment with Malme-3M, > 100 µM (inactive). The GI50 in the experiment with HCT-15 is 17.9 µM; in the experiment on UACC-257 it was > 100 µM (inactive); in the experiment on SW-620, 5.05 µM (inactive); in the experiment with KM12, 20.7 µM (inactive); with 786-0, > 29.6 µM (inactive); in the experiment with MDA-MB-435, 36.5 µM (inactive). The GI50 in the experiment on BT-549 is 68.5 µM (inactive); with EKVX, > 100 µM (inactive).

For the compound `CCOP(=O)(OCC)/C(C#N)=C/c1[nH]cnc1C`, the GI50 in the experiment with NCI-H23, in the experiment on NCI-H522, in the experiment with MDA-MB-231, in the experiment with LOX IMVI, in the experiment on SK-MEL-5 and in the experiment with M14 was > 100 µM (inactive) in each case. The GI50 in the experiment on OVCAR-5, with IGROV-1, in the experiment with MDA-N, with UACC-62, with SN12C and with Malme-3M was > 100 µM (inactive) throughout. The GI50 in the experiment on HCT-15 was over 100 µM; in the experiment with UACC-257, > 100 µM (inactive); with SW-620, > 100 µM (inactive); in the experiment on KM12 it was > 100 µM (inactive); in the experiment on 786-0 it was > 100 µM (inactive); in the experiment on MDA-MB-435, > 100 µM (inactive). In addition, the GI50 in the experiment with BT-549 and in the experiment with EKVX was > 100 µM (inactive) throughout.

`CC(=O)c1ccc2c3c1O[C@H]1c4[nH]c5ccccc5c4C[C@@]4(O)[C@@H](C2)N(CC2CC2)CC[C@]314`: the GI50 was 17.7 µM (inactive) with NCI-H23; 19.1 µM (inactive) in the experiment with NCI-H522; 12.8 µM (inactive) in the experiment with MDA-MB-231; 16.9 µM (inactive) in the experiment on LOX IMVI; 16 µM (inactive) in the experiment on SK-MEL-5; 16.9 µM (inactive) in the experiment with M14. For the same compound, the GI50 was 13.2 µM (inactive) in the experiment with OVCAR-5; 13.6 µM (inactive) in the experiment on IGROV-1; 17.7 µM (inactive) in the experiment with MDA-N; 16.5 µM (inactive) in the experiment on UACC-62; 19.1 µM (inactive) in the experiment on SN12C; 21.3 µM (inactive) with Malme-3M. Besides, the GI50 with HCT-15 is 8.67 µM; in the experiment on UACC-257, 16.8 µM (inactive); with SW-620, 0.179 µM (active); with KM12, 21.3 µM (inactive); in the experiment with 786-0, 15 µM (inactive); in the experiment on MDA-MB-435, 18.6 µM (inactive). Besides, the GI50 with BT-549 was 14.5 µM (inactive); in the experiment with EKVX it was 20.2 µM (inactive).

Consider `Cc1cc(=O)oc2c(C)c3oc(CBr)cc3cc12`, for which the GI50 in the experiment with NCI-H23 was 18.3 µM (inactive); in the experiment on NCI-H522, 15.2 µM (inactive); with MDA-MB-231, 29.4 µM (inactive); in the experiment with LOX IMVI, 15.3 µM (inactive); in the experiment with SK-MEL-5 it was 13.2 µM (inactive); in the experiment on M14, 18.2 µM (inactive). Also, the GI50 with OVCAR-5 was 16.8 µM (inactive); in the experiment on IGROV-1 it was 16.8 µM (inactive); in the experiment with MDA-N it was 19.2 µM (inactive); with UACC-62, 18.5 µM (inactive); in the experiment with SN12C it was 19.5 µM (inactive); in the experiment with Malme-3M, 19.2 µM (inactive). The GI50 in the experiment on HCT-15 was 18.2 µM; in the experiment with UACC-257 it was 22.8 µM (inactive); in the experiment with SW-620 it was 13.5 µM (inactive); with KM12 it was 19.1 µM (inactive); with 786-0, 16.3 µM (inactive); in the experiment on MDA-MB-435, 18.2 µM (inactive). Further, the GI50 is 15.3 µM (inactive) in the experiment with BT-549 and 26.4 µM (inactive) with EKVX.
